Laboratory results: ChEMBL document CHEMBL2046429, “Synthesis and biological evaluation of N-aryl salicylamides with a hydroxamic acid moiety at 5-position as novel HDAC-EGFR dual inhibitors” (Bioorg Med Chem, 2012)

How the values were obtained:
[1] = test system: HL-60; experiment: Antiproliferative activity against human HL60 cells after 48 hrs by MTT assay; format: functional, cell-based; details: HL-60, 48 h
[2] = test system: A549; experiment: Antiproliferative activity against human A549 cells after 48 hrs by MTT assay; format: functional, cell-based; details: A549, 48 h
[3] = biological target: Epidermal growth factor receptor (Homo sapiens, UniProt P00533); experiment: Inhibition of EGFR derived from human A431 cell membrane assessed as inhibition of poly-Glu-Tyr phosphorylation after 30 mins by ELISA assay; format: cell-based, A-431
[4] = test system: A-431; experiment: Antiproliferative activity against human A431 cells after 48 hrs by MTT assay; format: functional, cell-based; details: A-431, 48 h
[5] = biological target: Histone deacetylase; experiment: Inhibition of HDAC derived from human HeLa cell nuclear extract using Boc-Lys(acetyl)-AMC as substrate incubated for 5 mins prior to substrate addition measured after 30 mins by fluorimetry; format: protein assay

Sequence of Epidermal growth factor receptor (P00533 whole entry): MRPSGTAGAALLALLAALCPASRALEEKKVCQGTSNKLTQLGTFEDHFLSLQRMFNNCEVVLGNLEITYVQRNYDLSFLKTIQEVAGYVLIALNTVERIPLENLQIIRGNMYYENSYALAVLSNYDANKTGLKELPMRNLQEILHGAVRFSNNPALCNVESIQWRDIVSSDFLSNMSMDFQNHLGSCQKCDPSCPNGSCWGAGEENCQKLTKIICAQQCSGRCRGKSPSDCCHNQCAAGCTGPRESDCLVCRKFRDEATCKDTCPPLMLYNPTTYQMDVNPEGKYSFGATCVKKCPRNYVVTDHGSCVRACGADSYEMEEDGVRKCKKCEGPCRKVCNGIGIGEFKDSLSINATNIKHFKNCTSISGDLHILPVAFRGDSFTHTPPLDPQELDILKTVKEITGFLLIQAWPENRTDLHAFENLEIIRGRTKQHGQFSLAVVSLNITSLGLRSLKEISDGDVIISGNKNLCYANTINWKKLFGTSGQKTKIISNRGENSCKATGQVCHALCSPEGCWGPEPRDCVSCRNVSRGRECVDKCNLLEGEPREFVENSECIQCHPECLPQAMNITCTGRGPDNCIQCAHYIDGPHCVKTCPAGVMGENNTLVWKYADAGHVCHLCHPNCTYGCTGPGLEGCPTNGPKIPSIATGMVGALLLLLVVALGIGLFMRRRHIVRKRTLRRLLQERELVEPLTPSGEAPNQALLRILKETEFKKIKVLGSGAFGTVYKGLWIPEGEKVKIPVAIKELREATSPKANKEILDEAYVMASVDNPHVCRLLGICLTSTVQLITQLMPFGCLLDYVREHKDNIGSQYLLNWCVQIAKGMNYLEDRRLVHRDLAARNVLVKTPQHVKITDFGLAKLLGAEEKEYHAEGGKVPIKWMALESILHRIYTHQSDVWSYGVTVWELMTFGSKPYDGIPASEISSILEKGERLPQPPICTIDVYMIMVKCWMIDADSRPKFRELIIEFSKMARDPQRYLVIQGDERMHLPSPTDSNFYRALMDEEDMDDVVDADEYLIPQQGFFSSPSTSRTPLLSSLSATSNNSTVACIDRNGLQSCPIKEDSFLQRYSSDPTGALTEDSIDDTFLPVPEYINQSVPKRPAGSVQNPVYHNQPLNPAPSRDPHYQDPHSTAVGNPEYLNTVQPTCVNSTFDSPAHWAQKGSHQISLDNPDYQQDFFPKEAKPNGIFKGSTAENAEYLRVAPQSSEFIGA

Row | SMILES | IC50 [1] [µM] | IC50 [2] [µM] | IC50 [3] [µM] | IC50 [4] [µM] | IC50 [5] [µM]
1 | C#Cc1cccc(NC(=O)c2cc(NC(=O)CCCCCC(=O)NO)ccc2O)c1 | > 100 | 76.2 | 3.31 | 5.75 | 4.09
2 | O=C(CCCCCC(=O)Nc1ccc(O)c(C(=O)Nc2ccc(Cl)c(Cl)c2)c1)NO | > 100 | 17.8 | 1.8 | 3.8 | 3.65
3 | O=C(CCCCCC(=O)Nc1ccc(O)c(C(=O)Nc2ccc(Cl)c(C(F)(F)F)c2)c1)NO | > 100 | 24.1 | 1.41 | 4.14 | 3.48
4 | O=C(CCCCCC(=O)Nc1ccc(O)c(C(=O)Nc2ccc(OCc3cccc(F)c3)c(Cl)c2)c1)NO | > 100 | 12.4 | 1.1 | 2.6 | 3.01
5 | C#Cc1cccc(NC(=O)c2cc(NC(=O)CCCCCCC(=O)NO)ccc2O)c1 | > 100 | 43.6 | 2.25 | 6.11 | 2.03
6 | COc1cc(O)c(C(=O)Nc2ccc(F)c(Cl)c2)cc1NC(=O)CCCCCC(=O)NO | – | – | – | – | 1.09
7 | C#Cc1cccc(NC(=O)c2cccc(NC(=O)CCCCCC(=O)NO)c2)c1 | > 100 | 37.6 | 6.17 | 7.08 | 3.27

More lines, now with the values ahead:

Row | IC50 [1] [µM] | IC50 [2] [µM] | IC50 [3] [µM] | IC50 [4] [µM] | IC50 [5] [µM] | SMILES
8 | 20.3 | 14.6 | 2.34 | 5.85 | 1.89 | O=C(CCCCCC(=O)Nc1ccc(O)c(C(=O)Nc2ccccc2)c1)NO
9 | > 100 | 37.2 | 1.41 | 4.28 | 3.59 | O=C(CCCCCC(=O)Nc1ccc(O)c(C(=O)Nc2cccc(F)c2)c1)NO
10 | > 100 | 70.1 | 2.22 | 4.01 | 6.02 | O=C(CCCCCC(=O)Nc1ccc(O)c(C(=O)Nc2ccc(F)c(F)c2)c1)NO
11 | > 100 | 21.1 | 3.53 | 3.48 | 3.02 | O=C(CCCCCC(=O)Nc1ccc(O)c(C(=O)Nc2ccc(F)c(Cl)c2)c1)NO
12 | > 100 | 25.7 | 4.2 | 2.75 | 3.19 | O=C(CCCCCC(=O)Nc1ccc(O)c(C(=O)Nc2cccc(C(F)(F)F)c2)c1)NO
13 | 28.6 | 18.4 | 1.12 | 4.68 | 1.86 | C#Cc1cccc(NC(=O)c2cc(NC(=O)CCCCCC(=O)NO)c(OC)cc2O)c1
14 | 7.1 | 40.7 | 5.16 | 4.2 | 0.56 | C#Cc1cccc(NC(=O)c2cc(NC(=O)CCCCCC(=O)NO)ccc2OC)c1
15 | 30.9 | 15.5 | 0.9 | 1.88 | 1.21 | C#Cc1cccc(NC(=O)c2cc(OCCCCCCC(=O)NO)ccc2O)c1
